Like-named read-outs stand apart in the source and are kept apart here.
Experiments:
[1] = test system: transplanted Harding-Passey melanomas; set-up: species or system BALB/c mice; settings: mouse, in vivo
Experimental: The porphyrins of the present invention were tested for biodistribution and tumor uptake. BALB/c mice carrying transplanted Harding-[…] melanomas subcutaneously on the thigh or abdomen were given six intraperitoneal 0.5 mL injections over two days. The injection solutions contained 1 mg of compound/mL which is a total dose of 3 mg/mouse (approx. 150 μg porphyrin/g body weight or 32.2 μg B/g body weight). The compounds of formula II were completely water soluble and were allowed a 2 day clearance period post injection. The boron content was assayed by prompt gamma analysis using the gamma ray from the ^10 B(n,α)^7 Li reaction. Counts from the […] prompt-.tau.-ray are detected and analyzed using a narrow collimated thermal neutron beam from the Medical Research Reactor at Brookhaven National Laboratory. In this method the mice are dissected and whole organs or tissue samples (0.20-1.0 g) are measured for their boron content. […] Table 1 provides data for both the free base (compound of formula II wherein X is 2H) as well as the zinc chelate (compound of formula II wherein X is Zn), while Table 2 provides data for the free base. […] The long retention of porphyrins in tumor tissue can be exploited by waiting at least 4 days after it has cleared out of the blood before irradiation.

[2] = test system: tumor cell; settings: in vitro; cited from earlier work

| Substance | boron in the normal brain (in words) [1] | crossing of the blood-brain barrier [1] | retention of boron in tumor and clearance from blood (in words) [1] | tumor to blood ratio (comparison) [1] | uptake of boron into the tumor (in words) [1] | tumor to blood ratio ([1]; 2880 min) | tumor to blood ratio ([1]; 5760 min) | uptake in blood ([1]; ip, 48 h) | uptake in brain ([1]; ip, 48 h) | uptake in kidney ([1]; ip, 48 h) | uptake in liver ([1]; ip, 48 h) | uptake in lung ([1]; ip, 48 h) | uptake in muscle ([1]; ip, 48 h) | uptake in spleen ([1]; ip, 48 h) | uptake in tumor ([1]; ip, 48 h) | retention in tumor cell [2] |
| --- | --- | --- | --- | --- | --- | --- | --- | --- | --- | --- | --- | --- | --- | --- | --- | --- |
| dipotassium 2,4-bis-[2-(1,2-dicarbaundecaborate(-1))ethenyl]deuteroporphyrin IX [FREE BASE] | only a small amount of boron in the normal brain | does not cross the blood-brain barrier | retention of boron in the tumor with clearance from the blood over time | higher for the free base | substantial uptake of boron into the tumor | approximately 1:1 | approx. 5:1 | 15.3 ± 1.5 μgB/g TISSUE | 2.0 μgB/g TISSUE | 16.8 μgB/g TISSUE | 38.0 ± 11.9 μgB/g TISSUE | 20.8 μgB/g TISSUE | 3.9 μgB/g TISSUE | 8.5 μgB/g TISSUE | 18.7 ± 3.4 μgB/g TISSUE | – |
| Na2 B12 H11 SH [BSH] | – | – | – | – | – | – | – | – | – | – | – | – | – | – | – | does not stay in the tumor cell but is easily washed out |
